Earlier results as cited in patent US7582301B1, “Long-lasting antiviral fusion inhibitor peptide conjugates comprising albumin and human immunodeficiency virus (HIV) peptides” (Conjuchem Biotechnologies, Inc., priority 2000, dated 2009).
Where two headings read alike, the source gives them in different places.

Tests used:
HPIV-3 = conditions: for inhibition of viral infection of HPIV3, including fusion and syncytia formation: result in words, HPIV3-infected Hep2 cells and uninfected CV-1W cells
[1] = tested on: simian immunodeficiency virus (SIV); conditions: as crude peptides; result in words
measles virus (MeV) = conditions: result in words; MeV-infected and uninfected Vero cells
[2] = tested on: respiratory syncytial virus (RSV); conditions: RSV-infected and uninfected Hep-2 cells; for inhibition of viral infection of RSV, including fusion and syncytia formation: result in words
HIV-1 = conditions: result in words
[3] = result in words

ALDPIDISIELNKAKSDLEESKEWIRRSNQKLDSI (VALDPIDISIELNKAKSDLEESKEWIRRSNQKLDS) [SEQ ID NO:38, anti-HPIV-3 peptide, DP178-like]
inhibition of viral infection of HPIV3, including fusion and syncytia formation (HPIV-3): inhibits viral infection

DFLEENITALLEEAQIQQEKNMYELQKLNSWDVFG [SEQ ID NO:72]
anti-SIV activity [1]: potent antiviral activity

DPIDISIELNKAKSDLEESKEWIRRSNQKLDSIGN (LDPIDISIELNKAKSDLEESKEWIRRSNQKLDSIG) [SEQ ID NO:40, anti-HPIV-3 peptide, DP178-like]
inhibition of viral infection of HPIV3, including fusion and syncytia formation (HPIV-3): inhibits viral infection

ERKVDFLEENITALLEEAQIQQEKNMYELQKLNSW [SEQ ID NO:68]
anti-SIV activity [1]: potent antiviral activity

EWERKVDFLEENITALLEEAQIQQEKNMYELQKLN [SEQ ID NO:66]
anti-SIV activity [1]: potent antiviral activity

FLEENITALLEEAQIQQEKNMYELQKLNSWDVFGN [SEQ ID NO:73]
anti-SIV activity [1]: potent antiviral activity

HRIDLGPPISLERLDVGTNLGNAIAKLEAKELLE [SEQ ID NO:77]
inhibition of viral infection of MeV, including fusion and syncytia formation (measles virus (MeV)): inhibits viral infection

IALLSTNKAVVSLSNGVSVLTSKVLDLKNYIDK [SEQ ID NO:29, anti-RSV peptide from the F1 region of RSV]
concentration inhibiting fusion and syncytia formation [2]: less than 50 μg/ml | inhibition of viral infection of RSV, including fusion and syncytia formation [2]: inhibits viral infection

IDISIELNKAKSDLEESKEWIRRSNQKLDSIGNWH (PIDISIELNKAKSDLEESKEWIRRSNQKLDSIGNW) [SEQ ID NO:42, anti-HPIV-3 peptide, DP178-like]
inhibition of viral infection of HPIV3, including fusion and syncytia formation (HPIV-3): inhibits viral infection

IDLGPPISLERLDVGTNLGNAIAKLEAKELLESS [SEQ ID NO:79]
inhibition of viral infection of MeV, including fusion and syncytia formation (measles virus (MeV)): inhibits viral infection

KVDFLEENITALLEEAQIQQEKNMYELQKLNSWDV [SEQ ID NO:70]
anti-SIV activity [1]: potent antiviral activity

LDPIDISIELNKAKSDLEESKEWIRRSNQKLDSIG (ALDPIDISIELNKAKSDLEESKEWIRRSNQKLDSI) [SEQ ID NO:39, anti-HPIV-3 peptide, DP178-like]
inhibition of viral infection of HPIV3, including fusion and syncytia formation (HPIV-3): inhibits viral infection

NNLLRAIEAQQHLLQLTVWQIKQLQARILAVERYLKDQ [DP107]
anti-HIV-1 activity (inhibition of HIV-1 infection and fusion) (HIV-1; listed as DP-107): potent inhibitors

NSVALDPIDISIELNKAKSDLEESKEWIRRSNQKL (NNSVALDPIDISIELNKAKSDLEESKEWIRRSNQK) [SEQ ID NO:35, anti-HPIV-3 peptide, DP178-like]
concentration inhibiting fusion and syncytia formation (HPIV-3; HPIV-3-infected Hep2 cells and uninfected CV-1W cells): less than 1 μg/ml | inhibition of viral infection of HPIV3, including fusion and syncytia formation (HPIV-3): inhibits viral infection

PIDISIELNKAKSDLEESKEWIRRSNQKLDSIGNW (DPIDISIELNKAKSDLEESKEWIRRSNQKLDSIGN) [SEQ ID NO:41, anti-HPIV-3 peptide, DP178-like]
inhibition of viral infection of HPIV3, including fusion and syncytia formation (HPIV-3): inhibits viral infection

PISLERLDVGTNLGNAIAKLEAKELLESSDQILR [SEQ ID NO:84]
inhibition of viral infection of MeV, including fusion and syncytia formation (measles virus (MeV)): inhibits viral infection

QEWERKVDFLEENITALLEEAQIQQEKNMYELQKL [SEQ ID NO:65]
anti-SIV activity [1]: potent antiviral activity

RKVDFLEENITALLEEAQIQQEKNMYELQKLNSWD [SEQ ID NO:69]
anti-SIV activity [1]: potent antiviral activity

RSDIEKLKEAIRDTNKAVQSVQSSIGNLIVAIKSV [SEQ ID NO:58]
inhibition of viral infection of HPIV3, including fusion and syncytia formation (HPIV-3): inhibits viral infection

SEQ ID NO:8: analog peptide demonstrated to exhibit anti-viral activity; sequence not printed in the text (CGGNNLLRAIEAQQHLLQLTVWGIKQLQARILAVERYLKDQ)
anti-viral activity [3]: exhibit anti-viral activity

TSVITIELSNIKENKCNGAKVKLIKQELDKYKN (TSVITIELSNIKENKCNGDAKVKLIKQELDKYKN) [SEQ ID NO:15, anti-RSV peptide from the F2 region of RSV]
inhibition of viral infection of RSV, including fusion and syncytia formation [2]: inhibits viral infection

VDFLEENITALLEEAQIQQEKNMYELQKLNSWDVF [SEQ ID NO:71]
anti-SIV activity [1]: potent antiviral activity

VEAKQARSDIEKLKEAIRDTNKAVQSVQSSIGNLI [SEQ ID NO:52]
inhibition of viral infection of HPIV3, including fusion and syncytia formation (HPIV-3): inhibits viral infection

VITIELSNIKENKCNGAKVKLIKQELDKYKNAV (VITIELSNIKENKCNGDAKVKLIKQELDKYKNAV) [SEQ ID NO:16, anti-RSV peptide from the F2 region of RSV]
inhibition of viral infection of RSV, including fusion and syncytia formation [2]: inhibits viral infection

WERKVDFLEENITALLEEAQIQQEKNMYELQKLNS [SEQ ID NO:67]
anti-SIV activity [1]: potent antiviral activity

WQEWERKVDFLEENITALLEEAQIQQEKNMYELQK [SEQ ID NO:64]
anti-SIV activity [1]: potent antiviral activity

YTSVITIELSNIKENKCNGAKVKLIKQELDKYK (YTSVITIELSNIKENKCNGDAKVKLIKQELDKYK) [SEQ ID NO:14, anti-RSV peptide from the F2 region of RSV]
inhibition of viral infection of RSV, including fusion and syncytia formation [2]: inhibits viral infection

enfuvirtide
anti-HIV-1 activity (inhibition of HIV-1 infection and fusion) (HIV-1; listed as DP-178): potent inhibitors
